Reference: patent US9107967B2, “Apparatus and method for treating stored crops infected with toxins” (Pureline Treatment Systems, LLC, priority 2010, dated 2015)

Key:
[1] = Treatment of mash from mycotoxin-infected ground corn with heated aqueous ClO2 solution, then testing mash for mycotoxins; settings: mash exposed to 200 ppm aqueous ClO2 solution heated to 185° F for two hours; untreated 12 ppm
Experimental: Applicants conducted another study in order to determine the effects of ClO2 on toxins. Applicants obtained corn infected with mycotoxins and mycotoxin-producing microorganisms. Applicants ground the corn kernels and mixed them with water to form a mash, similar to what is used in various fermentation plants. Applicants heated an aqueous ClO2 solution with a concentration of 200 ppm to 185° F. Applicants then exposed the mash to the heated aqueous chlorine dioxide solution for two hours. Applicants drained the aqueous ClO2 solution from the mash. Applicants tested the mash for the presence of mycotoxins. Applicants also tested untreated mash from the same batch for the presence of mycotoxins.

[2] = Application of aqueous ClO2 solution to wheat during tempering or sweating; settings: 75 ppm aqueous ClO2 solution applied for 12 hours during tempering; approximately 12 ppm prior to application
Experimental: During processing of certain grains, such as wheat, a sweating or tempering step is used. During this step, the grain is contacted with water. The grain can be contacted with water for various amounts of time. In some examples the contacting occurs over night, in other examples the contacting occurs from 12-24 hours. This can be used as an opportunity the introduce an aqueous ClO2 solution.
Applicants conducted a study where a 75 ppm aqueous ClO2 solution was applied to wheat during tempering or sweating. The aqueous ClO2 solution was applied to the wheat for 12 hours.

[3] = Treatment of mycotoxin-infected corn kernels with aqueous ClO2 solution, then testing ground corn for mycotoxins; settings: corn kernels exposed to 400 ppm aqueous ClO2 solution for two hours; untreated corn 9 ppm
Text: Applicants conducted a study in order to determine the effects of ClO2 on toxins. Applicants obtained corn infected with mycotoxins and mycotoxin-producing microorganisms. Applicants exposed the corn kernels to an aqueous ClO2 solution with a concentration of 400 ppm for two hours. Applicants drained the aqueous ClO2 solution from the corn. Applicants ground the corn and tested for the presence of mycotoxins. Applicants also ground untreated corn from the batch and tested that corn for the presence of mycotoxins.

## [O][Cl+][O-] [ClO2, chlorine dioxide]
[1]
  concentration of Vomitoxin in treated corn (mash): 0.5 ppm
[2]
  concentration of Vomitoxin in wheat after application: approximately 1 ppm
[3]
  concentration of Vomitoxin in treated corn: 2.3 ppm
